Experiments:
Format in all cases: in vivo
[1] = system: pigweed (Amaranthus retroflexus); test: Test A preemergence; conditions: Amaranthus retroflexus, pre-emergence, 240 h, preemergence, 0 to 100 scale where 0 is no effect and 100 is complete control, read-out: Pigweed plant response rating
[2] = system: Kochia (Kochia scoparia); test: Test A preemergence; conditions: Bassia scoparia, pre-emergence, 240 h, preemergence, 0 to 100 scale where 0 is no effect and 100 is complete control, read-out: Kochia plant response rating
How it was run: (§1)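 Visual injury, scored on a 0–100 scale relative to untreated controls, was recorded about 10 d after application. Treatments were a preemergence soil spray over planted seeds or a postemergence spray on plants at the one- to two-leaf stage, 2 to 10 cm tall, all in loam soil–sand blend in the greenhouse.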

[3] = system: barnyardgrass (Echinochloa crus-galli); test: Test A preemergence; conditions: Echinochloa crus-galli, pre-emergence, 240 h, preemergence, 0 to 100 scale where 0 is no effect and 100 is complete control, read-out: Barnyardgrass plant response rating
How it was run: as §1

[4] = system: giant foxtail (Setaria faberii); test: Test A preemergence; conditions: Setaria faberi, pre-emergence, 240 h, preemergence, 0 to 100 scale where 0 is no effect and 100 is complete control, read-out: Foxtail, Giant plant response rating
How it was run: as §1

[5] = system: ragweed (common ragweed, Ambrosia elatior); test: Test A preemergence; conditions: Ambrosia artemisiifolia, pre-emergence, 240 h, preemergence, 0 to 100 scale where 0 is no effect and 100 is complete control, read-out: Ragweed plant response rating
How it was run: as §1

[6] = system: ryegrass, Italian (Italian ryegrass, Lolium multiflorum); test: Test A preemergence; conditions: Lolium multiflorum, pre-emergence, 240 h, preemergence, 0 to 100 scale where 0 is no effect and 100 is complete control, read-out: Ryegrass, Italian plant response rating
How it was run: as §1

[7] = system: pigweed (Amaranthus retroflexus); test: Test A postemergence; conditions: Amaranthus retroflexus, post-emergence, 240 h, Postemergence
How it was run: as §1

[8] = system: barnyardgrass (Echinochloa crus-galli); test: Test A postemergence; conditions: Echinochloa crus-galli, post-emergence, 240 h, Postemergence
How it was run: as §1

[9] = system: giant foxtail (Setaria faberii); test: Test A postemergence; conditions: Setaria faberi, post-emergence, 240 h, Postemergence
How it was run: as §1

[10] = system: corn (Zea mays); test: Test A postemergence; conditions: Zea mays, post-emergence, 240 h, Postemergence
How it was run: as §1

[11] = system: wheat (Triticum aestivum); test: Test A postemergence; conditions: Triticum aestivum, post-emergence, 240 h, Postemergence
How it was run: as §1

[12] = system: Galium (catchweed bedstraw, Galium aparine); test: Test A postemergence; conditions: Galium, post-emergence, 240 h, Postemergence
How it was run: as §1

[13] = system: ragweed (common ragweed, Ambrosia elatior); test: Test A postemergence; conditions: Ambrosia artemisiifolia, post-emergence, 240 h, Postemergence
How it was run: as §1

[14] = system: ryegrass, Italian (Italian ryegrass, Lolium multiflorum); test: Test A postemergence; conditions: Lolium multiflorum, post-emergence, 240 h, Postemergence
How it was run: as §1

[15] = 125 g ai/ha, visual injury rating, approximately 10 d

**Q.** For CN1CC(c2cccc(OCC=C(Cl)Cl)c2)C(C(=O)Nc2cccc(F)c2F)C1=O (stereo not shown) [Compound 1303], which pest or weed control at 125 g/ha [1, 15] is on record?
**A.** Its pest or weed control at 125 g/ha is 0%.

**Q.** And the pest or weed control at 500 g/ha ([1]; 500 g ai/ha)?
**A.** Its pest or weed control at 500 g/ha is 30%.

**Q.** What about the pest or weed control at 125 g/ha [2, 15] of the same compound?
**A.** The pest or weed control at 125 g/ha was 0%.

**Q.** What about the pest or weed control at 500 g/ha ([2]; 500 g ai/ha) of the same compound?
**A.** The pest or weed control at 500 g/ha was 0%.

**Q.** What about the pest or weed control at 125 g/ha [3, 15] of the same compound?
**A.** The pest or weed control at 125 g/ha was 0%.

**Q.** And the pest or weed control at 500 g/ha ([3]; 500 g ai/ha)?
**A.** The pest or weed control at 500 g/ha was 30%.

**Q.** And the pest or weed control at 125 g/ha [4, 15]?
**A.** The pest or weed control at 125 g/ha was 40%.

**Q.** What about the pest or weed control at 500 g/ha ([4]; 500 g ai/ha) of the same compound?
**A.** The pest or weed control at 500 g/ha was 90%.

**Q.** And the pest or weed control at 125 g/ha [5, 15]?
**A.** The pest or weed control at 125 g/ha was 0%.

**Q.** And the pest or weed control at 500 g/ha ([5]; 500 g ai/ha)?
**A.** Its pest or weed control at 500 g/ha is 0%.

**Q.** What about the pest or weed control at 125 g/ha [6, 15] of the same compound?
**A.** The pest or weed control at 125 g/ha was 0%.

**Q.** And the pest or weed control at 500 g/ha ([6]; 500 g ai/ha)?
**A.** The pest or weed control at 500 g/ha was 0%.

**Q.** What about the pest or weed control at 125 g/ha ([7]; 125 g ai/ha, visual rating about 10 d after treatment, read-out: Pigweed plant response rating (0 to 100 scale)) of the same compound?
**A.** Its pest or weed control at 125 g/ha is 0%.

**Q.** What about the pest or weed control at 500 g/ha ([7]; 500 g ai/ha, visual injury, 0 to 100 scale (0 no effect, 100 complete control), approx. 10 d, read-out: Plant response rating, Pigweed) of the same compound?
**A.** The pest or weed control at 500 g/ha was 0%.

**Q.** What about the pest or weed control at 125 g/ha ([8]; 125 g ai/ha, visual rating about 10 d after treatment, read-out: Barnyardgrass plant response rating (0 to 100 scale, 0 no effect, 100 complete control)) of the same compound?
**A.** Its pest or weed control at 125 g/ha is 0%.

**Q.** What about the pest or weed control at 500 g/ha ([8]; 500 g ai/ha, visual injury, 0 to 100 scale (0 no effect, 100 complete control), approx. 10 d, read-out: Plant response rating, Barnyardgrass) of the same compound?
**A.** The pest or weed control at 500 g/ha was 30%.

**Q.** And the pest or weed control at 125 g/ha ([9]; 125 g ai/ha, visual rating about 10 d after treatment, read-out: Foxtail, Giant plant response rating (0 to 100 scale))?
**A.** The pest or weed control at 125 g/ha was 40%.

**Q.** What about the pest or weed control at 500 g/ha ([9]; 500 g ai/ha, visual injury, 0 to 100 scale (0 no effect, 100 complete control), approx. 10 d, read-out: Plant response rating, Foxtail, Giant) of the same compound?
**A.** The pest or weed control at 500 g/ha was 60%.

**Q.** What about the plant injury at 125 g/ha ([10]; 125 g ai/ha, visual rating about 10 d after treatment, read-out: Corn plant response rating (0 to 100 scale)) of the same compound?
**A.** The plant injury at 125 g/ha was 0%.

**Q.** What about the Corn plant response rating (crop injury, 0 = no effect, 100 = complete kill) at 500 g/ha ([10]; 500 g ai/ha, visual injury, 0 to 100 scale (0 no effect, 100 complete control), approx. 10 d) of the same compound?
**A.** The Corn plant response rating (crop injury, 0 = no effect, 100 = complete kill) at 500 g/ha was 0%.

**Q.** What about the plant injury at 125 g/ha ([11]; 125 g ai/ha, visual rating about 10 d after treatment, read-out: Wheat plant response rating (0 to 100 scale)) of the same compound?
**A.** Its plant injury at 125 g/ha is 0%.

**Q.** And the plant injury at 500 g/ha ([11]; 500 g ai/ha, visual injury, 0 to 100 scale (0 no effect, 100 complete control), approx. 10 d, read-out: Plant response rating, Wheat)?
**A.** The plant injury at 500 g/ha was 0%.

**Q.** What about the pest or weed control at 125 g/ha ([12]; 125 g ai/ha, visual rating about 10 d after treatment, read-out: Galium plant response rating (0 to 100 scale)) of the same compound?
**A.** Its pest or weed control at 125 g/ha is 0%.

**Q.** What about the pest or weed control at 500 g/ha ([12]; 500 g ai/ha, visual injury, 0 to 100 scale (0 no effect, 100 complete control), approx. 10 d, read-out: Plant response rating, Galium) of the same compound?
**A.** Its pest or weed control at 500 g/ha is 0%.

**Q.** What about the pest or weed control at 125 g/ha ([13]; 125 g ai/ha, visual rating about 10 d after treatment, read-out: Ragweed plant response rating (0 to 100 scale)) of the same compound?
**A.** Its pest or weed control at 125 g/ha is 0%.

**Q.** What about the pest or weed control at 500 g/ha ([13]; 500 g ai/ha, visual injury, 0 to 100 scale (0 no effect, 100 complete control), approx. 10 d, read-out: Plant response rating, Ragweed) of the same compound?
**A.** Its pest or weed control at 500 g/ha is 0%.

**Q.** And the pest or weed control at 125 g/ha ([14]; 125 g ai/ha, visual rating about 10 d after treatment, read-out: Ryegrass, Italian plant response rating (0 to 100 scale))?
**A.** The pest or weed control at 125 g/ha was 0%.

**Q.** And the pest or weed control at 500 g/ha ([14]; 500 g ai/ha, visual injury, 0 to 100 scale (0 no effect, 100 complete control), approx. 10 d, read-out: Plant response rating, Ryegrass, Italian)?
**A.** Its pest or weed control at 500 g/ha is 0%.

From patent US12077503B2, “Substituted cyclic amides and their use as herbicides” (FMC CORPORATION, priority 2015, dated 2024)
